PubChem BioAssay AID256 (DTP/NCI, 2004)
Values joined by “and” are separate entries in the source; they are usually repeats but may differ in a detail not shown here. Identical values can stand only once. Inconclusive results and toxic doses are left out.

Test system: CD2F1 mice, L1210 leukemia ip, survival T/C
Experiment: NCI In Vivo Anticancer Drug Screen. Data for tumor model L1210 Leukemia (intraperitoneal) in CD2F1 (CDF1) mice
Conditions: higher = longer survival
How it was run: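 Transplantable tumor in mice; compound-treated vs vehicle-treated groups. Read-out = treated/control ratio of the measured endpoint.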

[1] = endpoint: mean survival time, dose: 50.0 mg/kg/injection, schedule: Q01DX009 (ip), vehicle: saline with Tween-80
[2] = endpoint: mean survival time, dose: 100.0 mg/kg/injection, schedule: Q01DX009 (ip), vehicle: saline with Tween-80
[3] = endpoint: mean survival time, dose: 200.0 mg/kg/injection, schedule: Q01DX009 (ip), vehicle: saline with Tween-80
[4] = endpoint: mean survival time, dose: 100.0 mg/kg/injection, schedule: Q01DX001 (ip), vehicle: saline with Tween-80
[5] = endpoint: mean survival time, dose: 200.0 mg/kg/injection, schedule: Q01DX001 (ip), vehicle: saline with Tween-80
[6] = endpoint: mean survival time, dose: 400.0 mg/kg/injection, schedule: Q01DX001 (ip), vehicle: saline with Tween-80
[7] = endpoint: mean survival time, dose: 100.0 mg/kg/injection, schedule: Q01DX009 (ip), vehicle: saline
[8] = endpoint: mean survival time, dose: 200.0 mg/kg/injection, schedule: Q01DX009 (ip), vehicle: saline
[9] = endpoint: mean survival time, dose: 400.0 mg/kg/injection, schedule: Q01DX009 (ip), vehicle: saline
[10] = endpoint: mean survival time, dose: 100.0 mg/kg/injection, schedule: Q04DX002 (ip), vehicle: saline with Tween-80
[11] = endpoint: mean survival time, dose: 200.0 mg/kg/injection, schedule: Q04DX002 (ip), vehicle: saline with Tween-80

For `CO[C@@]12[C@@H]3N[C@@H]3CN1c1c(O)c(C)c(N=C3N=NC(=S)S3)c(O)c1[C@@H]2COC(N)=O`, the T/C (endpoint: mean survival time, dose: 1.5 mg/kg/injection, schedule: Q01DX001 (ip), vehicle: distilled water + Tween-80) was 98 % of control, the T/C (endpoint: mean survival time, dose: 3.0 mg/kg/injection, schedule: Q01DX001 (ip), vehicle: distilled water + Tween-80) was 98 % of control and the T/C (endpoint: mean survival time, dose: 6.0 mg/kg/injection, schedule: Q01DX001 (ip), vehicle: distilled water + Tween-80) was 98 % of control. The T/C (endpoint: mean survival time, dose: 12.0 mg/kg/injection, schedule: Q01DX001 (ip), vehicle: distilled water + Tween-80) was 102 % of control, the T/C (endpoint: mean survival time, dose: 24.0 mg/kg/injection, schedule: Q01DX001 (ip), vehicle: distilled water + Tween-80) was 110 % of control and the T/C (endpoint: mean survival time, dose: 48.0 mg/kg/injection, schedule: Q01DX001 (ip), vehicle: saline with Tween-80) was 100 % of control. The T/C (endpoint: mean survival time, dose: 96.0 mg/kg/injection, schedule: Q01DX001 (ip), vehicle: saline with Tween-80) was 110 % of control.

`CC1C(C(=O)c2ccc(-c3ccccc3)cc2)N1c1ccccc1` (stereo not drawn) was tested, and the T/C (endpoint: mean survival time, dose: 100.0 mg/kg/injection, schedule: Q01DX001 (ip), vehicle: Klucel (hydroxypropylcellulose) (HPC)) was 94 % of control, the T/C (endpoint: mean survival time, dose: 200.0 mg/kg/injection, schedule: Q01DX001 (ip), vehicle: Klucel (hydroxypropylcellulose) (HPC)) was 101 % of control and the T/C (endpoint: mean survival time, dose: 400.0 mg/kg/injection, schedule: Q01DX001 (ip), vehicle: Klucel (hydroxypropylcellulose) (HPC)) was 86 % of control.

With `NC(N)=NS(=O)(=O)c1ccc(NCc2c3ccccc3nc3ccccc23)cc1` the T/C (endpoint: median survival time, dose: 50.0 mg/kg/injection, schedule: Q01DX005 (ip), vehicle: Klucel (hydroxypropylcellulose) (HPC)) was 150 % of control, the T/C (endpoint: median survival time, dose: 172.8 mg/kg/injection, schedule: Q01DX005 (ip), vehicle: Klucel (hydroxypropylcellulose) (HPC)) was 178 % of control and the T/C (endpoint: median survival time, dose: 200.0 mg/kg/injection, schedule: Q01DX005 (ip), vehicle: Klucel (hydroxypropylcellulose) (HPC)) was 153 % of control. The T/C (endpoint: median survival time, dose: 400.0 mg/kg/injection, schedule: Q01DX005 (ip), vehicle: Klucel (hydroxypropylcellulose) (HPC)) was 172 % of control, the T/C (endpoint: median survival time, dose: 480.0 mg/kg/injection, schedule: Q01DX005 (ip), vehicle: Klucel (hydroxypropylcellulose) (HPC)) was 150 % of control and the T/C (endpoint: median survival time, dose: 800.0 mg/kg/injection, schedule: Q01DX005 (ip), vehicle: Klucel (hydroxypropylcellulose) (HPC)) was 178 % of control and 182 % of control. For the same molecule, the T/C (endpoint: median survival time, dose: 1333.33 mg/kg/injection, schedule: Q01DX005 (ip), vehicle: Klucel (hydroxypropylcellulose) (HPC)) was 187 % of control.

`CCOC(=O)c1c(Cl)nc2ccccc2c1Cl` was tested, and the T/C [1] was 105 % of control, the T/C [2] was 105 % of control and the T/C [3] was 94 % of control.

With `O=C(O)c1[nH]c(=O)[nH]c(=O)c1F` the T/C (endpoint: mean survival time, dose: 1.25 mg/kg/injection, schedule: Q01DX009 (ip), vehicle: saline) was 101 % of control and 109 % of control, the T/C (endpoint: mean survival time, dose: 2.5 mg/kg/injection, schedule: Q01DX007 (ip), vehicle: Klucel (hydroxypropylcellulose) (HPC)) was 119 % of control and the T/C (endpoint: mean survival time, dose: 2.5 mg/kg/injection, schedule: Q01DX009 (ip), vehicle: saline) was 123 % of control. For the same molecule, the T/C (endpoint: mean survival time, dose: 2.5 mg/kg/injection, schedule: Q03DX003 (ip), vehicle: Klucel (hydroxypropylcellulose) (HPC)) was 110 % of control, the T/C (endpoint: mean survival time, dose: 2.5 mg/kg/injection, schedule: Q04DX003 (ip), vehicle: Klucel (hydroxypropylcellulose) (HPC)) was 103 % of control and the T/C (endpoint: mean survival time, dose: 5.0 mg/kg/injection, schedule: Q01DX007 (ip), vehicle: Klucel (hydroxypropylcellulose) (HPC)) was 165 % of control. The T/C (endpoint: mean survival time, dose: 5.0 mg/kg/injection, schedule: Q01DX009 (ip), vehicle: saline) was 168 % of control, the T/C (endpoint: mean survival time, dose: 5.0 mg/kg/injection, schedule: Q03DX003 (ip), vehicle: Klucel (hydroxypropylcellulose) (HPC)) was 122 % of control and the T/C (endpoint: mean survival time, dose: 5.0 mg/kg/injection, schedule: Q04DX003 (ip), vehicle: Klucel (hydroxypropylcellulose) (HPC)) was 112 % of control. For the same molecule, the T/C (endpoint: mean survival time, dose: 10.0 mg/kg/injection, schedule: Q01DX007 (ip), vehicle: Klucel (hydroxypropylcellulose) (HPC)) was 119 % of control and the T/C (endpoint: mean survival time, dose: 10.0 mg/kg/injection, schedule: Q04DX003 (ip), vehicle: Klucel (hydroxypropylcellulose) (HPC)) was 117 % of control.

With `COc1ccc(NC(=O)c2ccccc2)c([N+](=O)[O-])c1` the T/C (endpoint: mean survival time, dose: 100.0 mg/kg/injection, schedule: Q04DX003 (ip), vehicle: saline with Tween-80) was 105 % of control, the T/C (endpoint: mean survival time, dose: 200.0 mg/kg/injection, schedule: Q04DX003 (ip), vehicle: saline with Tween-80) was 97 % of control and the T/C (endpoint: mean survival time, dose: 400.0 mg/kg/injection, schedule: Q04DX003 (ip), vehicle: saline with Tween-80) was 94 % of control.

With `CCOC(=O)N1C=Cc2ccccc2C1/C(N)=N/O` (stereo not drawn) the T/C [4] was 98 % of control, the T/C (endpoint: mean survival time, dose: 100.0 mg/kg/injection, schedule: Q01DX009 (ip), vehicle: Klucel (hydroxypropylcellulose) (HPC)) was 96 % of control and the T/C [5] was 95 % of control. For the same molecule, the T/C (endpoint: mean survival time, dose: 200.0 mg/kg/injection, schedule: Q01DX009 (ip), vehicle: Klucel (hydroxypropylcellulose) (HPC)) was 91 % of control, the T/C [6] was 94 % of control and the T/C (endpoint: mean survival time, dose: 400.0 mg/kg/injection, schedule: Q01DX009 (ip), vehicle: Klucel (hydroxypropylcellulose) (HPC)) was 91 % of control.

In the case of `O=C(c1ccccc1Cl)c1cccc2ccccc12`, the T/C [7] is reported as 110 % of control, the T/C [8] is reported as 96 % of control and the T/C [9] is reported as 94 % of control.

For `O=CC12C=CC(CC1)C1C(=O)OC(=O)C12` (stereo not drawn), the T/C [4] was 104 % of control, the T/C [5] was 103 % of control and the T/C [6] was 101 % of control.

In the case of `C[n+]1ccccc1`, the T/C [7] is reported as 97 % of control, the T/C (endpoint: mean survival time, dose: 100.0 mg/kg/injection, schedule: Q04DX002 (ip), vehicle: other) is reported as 96 % of control and the T/C [8] is reported as 101 % of control. The T/C (endpoint: mean survival time, dose: 200.0 mg/kg/injection, schedule: Q04DX002 (ip), vehicle: other) was 93 % of control, the T/C [9] was 97 % of control and the T/C (endpoint: mean survival time, dose: 400.0 mg/kg/injection, schedule: Q04DX002 (ip), vehicle: other) was 96 % of control.

In the case of `CC(=O)N(c1ccccc1)C1CCC2(C)C(=CCC3C2CCC2(C)C(C(C)CCCC(C)C)CCC32)C1` (stereo not drawn), the T/C (endpoint: mean survival time, dose: 100.0 mg/kg/injection, schedule: Q01DX009 (sc), vehicle: steriod suspending solution) is reported as 96 % of control, the T/C (endpoint: mean survival time, dose: 100.0 mg/kg/injection, schedule: Q04DX003 (sc), vehicle: steriod suspending solution) is reported as 95 % of control and the T/C (endpoint: mean survival time, dose: 200.0 mg/kg/injection, schedule: Q01DX009 (sc), vehicle: steriod suspending solution) is reported as 102 % of control. For the same molecule, the T/C (endpoint: mean survival time, dose: 200.0 mg/kg/injection, schedule: Q04DX003 (sc), vehicle: steriod suspending solution) was 93 % of control, the T/C (endpoint: mean survival time, dose: 400.0 mg/kg/injection, schedule: Q01DX009 (sc), vehicle: steriod suspending solution) was 102 % of control and the T/C (endpoint: mean survival time, dose: 400.0 mg/kg/injection, schedule: Q04DX003 (sc), vehicle: steriod suspending solution) was 96 % of control.

With `CC(C)(Cc1ccc([N+](=O)[O-])cc1)[N+](=O)[O-]` the T/C (endpoint: mean survival time, dose: 75.0 mg/kg/injection, schedule: Q01DX001 (ip), vehicle: saline) was 98 % of control and the T/C (endpoint: mean survival time, dose: 150.0 mg/kg/injection, schedule: Q01DX001 (ip), vehicle: saline) was 102 % of control.

In the case of `CCOC(=O)CNC(=O)Nc1ccccc1OCC`, the T/C [1] is reported as 89 % of control, the T/C [2] is reported as 89 % of control and the T/C [3] is reported as 93 % of control.

In the case of `CC(=O)Nc1c(Br)cc2c(c1Br)Cc1cc(N(CCO)CCO)ccc1-2`, the T/C (endpoint: mean survival time, dose: 50.0 mg/kg/injection, schedule: Q01DX001 (ip), vehicle: carboxymethylcellulose (CMC)) is reported as 102 % of control, the T/C (endpoint: mean survival time, dose: 100.0 mg/kg/injection, schedule: Q01DX001 (ip), vehicle: carboxymethylcellulose (CMC)) is reported as 102 % of control and the T/C (endpoint: mean survival time, dose: 200.0 mg/kg/injection, schedule: Q01DX001 (ip), vehicle: carboxymethylcellulose (CMC)) is reported as 104 % of control. The T/C (endpoint: mean survival time, dose: 400.0 mg/kg/injection, schedule: Q01DX001 (ip), vehicle: carboxymethylcellulose (CMC)) was 98 % of control.

For `O=C(NN(C(=O)c1ccccc1)c1ccccc1)c1ccccc1`, the T/C [10] was 100 % of control, the T/C [11] was 107 % of control and the T/C (endpoint: mean survival time, dose: 400.0 mg/kg/injection, schedule: Q04DX002 (ip), vehicle: saline with Tween-80) was 103 % of control.

For `COc1ccc(COC(=O)Nc2ccc(C)cc2)cc1`, the T/C (endpoint: mean survival time, dose: 50.0 mg/kg/injection, schedule: Q04DX002 (ip), vehicle: saline with Tween-80) was 100 % of control, the T/C [10] was 100 % of control and the T/C [11] was 96 % of control.
